# In publication PMC12457078, “Inhibition of soluble epoxide hydrolase in endotoxin induced pig lung injury” (Frontiers in Pharmacology, 2025):
# System: sEH
# Test: oxylipin analysis, epoxide/diol ratios (target engagement)
# Assay type: in vivo, pig
# Parameters: 14,15-DiHETE: unit not given beside the values; 12,13-DiHOME / 9,10-DiHODE / 11,12-DiHETrE / 14,15-DiHETrE / 10,11-DiHDPE / 19,20-DiHDPE / 13-HODE / 5-HETE / 11-HETE / 12-HETE / 5-HEPE / 9(10)-EpOME / 12(13)-EpOME / EKODE / 11(12)-EpETE: unit not given here
# Conditions: for 14,15-DiHETE: high blanks
# Procedure: All animals were monitored with pulse oximetry, heart rate, ECG, systemic arterial blood pressure (ABP), pulmonary arterial pressure (PAP), central venous pressure (CVP) temperature, tidal volumes, respiratory rate and end tidal carbon dioxide. At baseline, and at 3 h, 6 h and at the end of the experiment, pulmonary capillary wedge pressure (PCWP) was measured together with arterial and venous blood gas analyses, as well as cardiac output calculations. Routine chemistry, including creatinine, bilirubin, glucose, electrolytes were collected at baseline and at the end of the experiment (Vetscan VS2®, Abaxis, Griesheim, Germany). Blood samples for measurement of AEPU plasma concentrations, as well as oxylipins (i.e., EpETrEs and their DiHETrE corresponding diols as well as related compounds with other polyunsaturated fatty acid precursors), were collected at baseline, 6 h and at the end of the experiment.
# This meant nine subjects in each group to achieve 90% power of detecting a difference of this size given α = 0.05. Anticipating that not all experiments would reach completion, we used a sample size of 22. The results were analyzed using SPSS Statistics, version 24 (IBM Corp., Armonk, N.Y., United States). Normality was examined with the Shapiro-Wilk test, together with examination of histograms of data. Continuous variables were compared using Student’s t-test or Mann Whitney U test, as appropriate. Categorical variables were compared using Fischer’s exact test. Statistical significance was set at α < 0.05. Oxylipins with at least 80% of observations above limit of detection at both timepoints were included in pairwise comparisons of ratios and fold-change evaluations where observations below limit of detection (LOD) were substituted with 0.5 x LOD.
# [1] = animal 20, time 6, sample Schwein36
# [2] = animal 22, time 0, sample Schwein37
# [3] = animal 22, time 6, sample Schwein38
smiles,measurement,setting,value
CCOCCOCCOCCCCCNC(=O)NC12CC3CC(CC(C3)C1)C2 [sEH-i],15-HEPE,[1],<LOD
same,15-HETE,[1],0.23
same,15-HETrE,[1],0.10
same,15-oxo-ETE,[1],0.0224
same,16(17)-EpDPE,[1],<LOD
same,"16,17-DiHDPE",[1],0.0373
same,17(18)-EpETE,[1],<LOD
same,"17,18-DiHETE",[1],0.77
same,17-HDoHE,[1],<LOD
same,19(20)-EpDPE,[1],<LOD
same,"19,20-DiHDPE",[1],0.44
same,20-HETE,[1],0.0531
same,EKODE,[1],0.20
same,LTB4,[1],0.26
same,PGD2,[1],<LOD
same,PGE2,[1],<LOD
same,PGF2a,[1],0.69
same,Resolvin D1,[1],<LOD
same,Resolvin D2,[1],<LOD
same,TXB2,[1],2.57
same,"14,15-DiHETE",[1],0.2599
same,5(6)-EpETrE,[2],<LOD
same,"5,6-DiHETrE",[2],<LOD
same,5-HEPE,[2],0.21
same,5-HETE,[2],0.81
same,5-oxo-ETE,[2],0.30
same,7(8)-EpDPE,[2],<LOD
same,"7,8-DiHDPE",[2],<LOD
same,8(9)-EpETE,[2],<LOD
same,8(9)-EpETrE,[2],<LOD
same,"8,9-DiHETE",[2],0.0568
same,"8,9-DiHETrE",[2],0.11
same,8-HETE,[2],0.16
same,9(10)-EpODE,[2],0.39
same,9(10)-EpOME,[2],1.58
same,"9,10,13-TriHOME",[2],8.76
same,"9,10-DiHODE",[2],0.80
same,"9,10-DiHOME",[2],5.53
same,"9,12,13-TriHOME",[2],1.91
same,9-HETE,[2],<LOD
same,9-HODE,[2],22.28
same,9-HOTrE,[2],2.15
same,9-oxo-ODE,[2],<LOD
same,10(11)-EpDPE,[2],<LOD
same,"10,11-DiHDPE",[2],0.12
same,11(12)-EpETE,[2],0.09412
same,11(12)-EpETrE,[2],0.09
same,"11,12-DiHETE",[2],0.09
same,"11,12-DiHETrE",[2],1.52
same,11-HETE,[2],0.33
same,12(13)-EpODE,[2],0.93
same,12(13)-EpOME,[2],3.18
same,"12,13-DiHODE",[2],1.66
same,"12,13-DiHOME",[2],19.80
same,12-HEPE,[2],0.0755
same,12-HETE,[2],0.69
same,12-oxo-ETE,[2],4.85
same,13(14)-EpDPE,[2],<LOD
same,"13,14-DiHDPE",[2],0.22
same,13-HODE,[2],80.31
same,13-HOTrE,[2],4.84
same,13-oxo-ODE,[2],6.02
same,14(15)-EpETE,[2],<LOD
same,14(15)-EpETrE,[2],0.11
same,"14,15-DiHETrE",[2],3.44
same,15(16)-EpODE,[2],36.18
same,"15,16-DiHODE",[2],74.86
same,15-HEPE,[2],<LOD
same,15-HETE,[2],0.58
same,15-HETrE,[2],0.39
same,15-oxo-ETE,[2],0.15
same,16(17)-EpDPE,[2],<LOD
same,"16,17-DiHDPE",[2],0.63
same,17(18)-EpETE,[2],<LOD
same,"17,18-DiHETE",[2],3.51
same,17-HDoHE,[2],0.47
same,19(20)-EpDPE,[2],0.29
same,"19,20-DiHDPE",[2],4.63
same,20-HETE,[2],0.35
same,EKODE,[2],0.67
same,LTB4,[2],<LOD
same,PGD2,[2],0.04
same,PGE2,[2],0.0328
same,PGF2a,[2],0.19
same,Resolvin D1,[2],<LOD
same,Resolvin D2,[2],<LOD
same,TXB2,[2],0.22
same,"14,15-DiHETE",[2],0.2458
same,5(6)-EpETrE,[3],<LOD
same,"5,6-DiHETrE",[3],<LOD
same,5-HEPE,[3],0.03
same,5-HETE,[3],0.2075
same,5-oxo-ETE,[3],0.12
same,7(8)-EpDPE,[3],<LOD
same,"7,8-DiHDPE",[3],<LOD
same,8(9)-EpETE,[3],<LOD
